Patent US9549977B2 (priority 2011, dated 2017)
Marks after values point to notes of the source that are not given here.

Columns and labels:
[1] = system: IL 15; assay: IL 15 expression in head kidney leukocytes, real time PCR; assay type: cell-based, rainbow trout (Oncorhynchus mykiss); details: 10^−9 M, 48 h, vs negative control
Description: (§1) FIG. 5. Expression analysis by real time PCR of the in vitro effect of PACAP38 over the transcription of IL 15 in peripheral blood leukocytes (A) and head kidney (B) of neïve rainbow trout. The effects of PACAP administration at a concentration of 10^−10 M, 10^−9 M and 10^−8 M was evaluated at 48 h post-treatment. The experiment was repeated 4 times. The leukocyte cultures were treated in duplicates and the PCRs were performed in triplicates. Data are expressed as the mean of the relative expression of IL 15 related to the endogenous elongation factor EF1α±standard deviation (SD). (*) p<0.05.
(§2) We used juvenile rainbow trout (O. mykiss) of approximately 50 g, free of the VHSV and IPNV. Fish (n=5) were anesthetized with methanesulfonic acid salt (Sigma, USA) and peripheral blood from the tail vein was taken aseptically of each fish and then the head kidney was collected. […]
(§3) The levels of IL 1β and IL 15 were evaluated 48 hours after treatment. […]
(§4) For cDNA synthesis was used a commercial kit that use the SuperScript III reverse transcriptase (Invitrogen). Finally, for quantitative PCRs (qPCRs) was used a commercial mixture of PCR: Power SYBR Green PCR Master Mix (Applied Biosystems). […] The results were expressed as 2^−ΔCt, where ΔCt is equal to the remainder of the Ct value of the target gene minus the Ct value of the normalized gene EF 1α.

[2] = system: Caligus rogercresseyi; assay: Controlled challenge test with Caligus rogercresseyi in immunized Salmo salar
Description: In this experiment were established six experimental groups of 25 animals (average weight 80 g) each one:
Group 1: Injected IP with PBS
Group 2: Injected IP with PACAP38 at the dose of 1 μg/fish
Group 3: Injected IP with my32 at the dose of 3 μg/g of body weight (gbw)
Group 4: Co-administration by IP injection of my32 at 3 μg/gbw and PACAP at the dose of 1 μg/fish
Group 5: Fish injected IP with my32 at the dose of 3 μg/gbw and fed with 250 μg of PACAP/Kg of feed daily, for one week before and after de immunization with my32.
After 500 arbitrary thermal units, fish were adapted to seawater for two weeks. Subsequently, they were challenged with 2000±200 copepodites to each tank. […] Turnover and filtration was performed manually every 48 hours. At 24 days, fish were anesthetized and killed for parasite counting under a stereomicroscope.

[3] = system: IL 15; assay: IL 15 expression in peripheral blood leukocytes, real time PCR; assay type: cell-based, rainbow trout (Oncorhynchus mykiss)
Description: as §1, §2, §3, §4

[4] = system: Ichthyophthirius multifiliis; assay: Survival of channel catfish immunized and challenged with live theronts of I. multifiliis; assay type: in vivo, channel catfish (Ictalurus punctatus); details: PACAP immersion baths 100 μg/L, 6 baths of 1 hour, versus immunized fish
Description: An experiment was conducted to evaluate the effect of PACAP administration, after immunization with ciliated parasite theronts I. multifiliis, on survival of channel catfish (I. punctatus). The vaccination and challenge procedure was performed as proposed by Wang and Dickerson ((2002) Clinical and Diagnostic Laboratory Immunology 9 (1), 176-181). Four experimental groups of 25 fish (12±5 g) each one were established:
Group 1: Fish immunized on days 1 and 35 with PBS.
Group 2: Fish immunized on day 1 with 8000 live theronts I. multifiliis and at day 35 with 10,000 living theronts parasite.
Group 3: Fish immunized on day 1 with 8000 live theronts I. multifiliis and at day 35 with 10,000 living theronts parasite. These fish also received by immersion baths the neuropeptide PACAP at a dose of 100 μg of PACAP/L of water. The treatment was performed for 1 hour, on alternate days, in the two weeks prior to challenge (six immersion baths).
Group 4: Fish immunized on day 1 with 8000 live theronts I. multifiliis and at day 35 with 10,000 living theronts parasite. These fish were also subjected to immersion baths for 1 hour without PACA, by a procedure similar to Group 3.
Prior to the immunizations fish were treated with formalin to remove existing ectoparasites. The fish were maintained at 23±2° C. and continuous water flow. At day 84, the fish were challenged with 15 000 theronts. […]

[5] = system: IL 1β; assay: IL 1β transcription in head kidney leukocytes, real time PCR; assay type: cell-based, rainbow trout (Oncorhynchus mykiss); details: 10^−10, 10^−9, 10^−8 M tested, 48 h
Description: (§5) FIG. 4. Expression analysis by real time PCR of the in vitro effect of PACAP38 over the transcription of IL 1β in peripheral blood leukocytes (A) and head kidney (B) of naïve rainbow trout. The effects of PACAP administration at a concentration of 10^−10 M, 10^−9 M and 10^−8 M was evaluated at 48 h post-treatment. The experiment was repeated 4 times. The leukocyte cultures were treated in duplicates and the PCRs were performed in triplicate. Data are expressed as mean of relative expression of IL 1β related to the endogenous elongation factor EF1α±standard deviation (SD).
as §2, §3, §4

[6] = system: IL 1β; assay: IL 1β transcription in peripheral blood leukocytes, real time PCR; assay type: cell-based, rainbow trout (Oncorhynchus mykiss)
Description: as §5, §2, §3, §4

Substance: PACAP38
- IL 15 expression levels (relative to EF1α) [1]: statistically higher than the negative control group
- Inhibition of the infestation (%) ([2]; 24 days post-challenge, (1 − T/C) × 100 versus placebo group): 22%
- Number of parasites/fish ([2]; S. salar, 24 days post-challenge with C. rogercresseyi, PACAP 1 μg/fish IP or 250 μg/Kg feed, my32 3 μg/gbw IP): 29 ± 5^b
- expression of the IL 15 (relative to EF1α) ([3]; 10^−9 M, 48 h): stimulatory effect
- expression of the IL 15 (relative to EF1α) ([3]; 10^−10 M, 48 h (highest values)): stimulatory effect
- increase in survival of immunized fish simultaneously treated with PACAP [4]: 27%
- IL1β transcription (relative expression to EF1α) [5]: stimulatory effect only at a dose of 10^−9 M
- transcription of IL 1β (relative expression to EF1α) ([6]; 10^−9 M, 48 h, vs negative control, below the 10^−10 M level): stimulatory effect
- IL 1β levels (relative expression to EF1α) ([6]; 10^−10 M, 48 hours): increased
